Reference: ChEMBL document CHEMBL5154783, “Design, synthesis, and evaluation of novel 3-thiophene derivatives as potent fungistatic and fungicidal reagents based on a conformational restriction strategy” (Eur J Med Chem, 2022)
Values after ≈ are worked out from the molar mass of the structure shown. Active and inactive are the calls of the source. The rule behind the calls is not given here.

Assays:
Candida albicans [1] = experiment: Fungicidal activity against Candida albicans CPCC400616 measured after 48 hrs; type: functional
[2] = target: T1, Lanosterol 14-alpha demethylase (Candida albicans (strain SC5314 / ATCC MYA-2876) (Yeast), UniProt P10613); experiment: Inhibition of CYP51 in Candida albicans ATCC SC5314 assessed as lanosterol level at 0.0075 ug/ml measured after 18 hrs by GC-MS analysis relative to control; set-up: scale not given: the % may be the effect or the level left; conditions: at 0.0075 µg/mL
T1 sequence (P10613 whole entry): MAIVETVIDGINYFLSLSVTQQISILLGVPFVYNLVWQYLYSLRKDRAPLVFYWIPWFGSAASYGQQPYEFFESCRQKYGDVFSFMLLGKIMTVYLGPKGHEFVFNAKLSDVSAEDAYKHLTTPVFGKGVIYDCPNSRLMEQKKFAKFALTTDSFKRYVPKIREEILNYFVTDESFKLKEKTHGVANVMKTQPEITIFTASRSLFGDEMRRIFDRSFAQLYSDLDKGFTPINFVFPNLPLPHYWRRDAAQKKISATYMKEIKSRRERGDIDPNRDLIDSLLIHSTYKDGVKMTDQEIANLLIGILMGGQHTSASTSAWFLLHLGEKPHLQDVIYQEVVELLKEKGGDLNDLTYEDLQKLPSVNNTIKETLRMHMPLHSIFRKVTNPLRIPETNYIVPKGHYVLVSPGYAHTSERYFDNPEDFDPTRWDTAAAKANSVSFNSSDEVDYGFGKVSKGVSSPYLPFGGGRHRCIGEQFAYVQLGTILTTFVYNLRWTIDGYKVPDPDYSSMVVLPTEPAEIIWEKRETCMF

Cell membrane [3] = experiment: Disruption of membrane integrity in Candida albicans ATCC SC5314 assessed as cell membrane damage at 16 ug/ml incubated for 48 hrs by transmission electron microscopy; type: subcellular; conditions: dose 16.0 µg/ml
Candida albicans [4] = experiment: Antifungal activity against FLC-resistant Candida albicans CaR assessed as fungal growth inhibition by CLSI based serial microbroth dilution method; type: functional
Candida albicans [5] = experiment: Antifungal activity against FLC-resistant Candida albicans 103 assessed as fungal growth inhibition by CLSI based serial microbroth dilution method; type: functional
MCF7 = experiment: Cytotoxicity against human MCF7 cells assessed as reduction in cell viability incubated for 96 hrs by MTT assay; type: functional, cell-based; conditions: MCF7, 96 h
Candida albicans [6] = experiment: Fungicidal activity in Candida albicans CPCC400616 assessed as reduction in viable colony formation at 0.25 ug/ml measured within 16 hrs by time kill assay; type: functional, organism-based; conditions: dose 0.25 µg/ml
Candida albicans [7] = experiment: Antifungal activity against FLC and ITC-resistant Candida albicans 17 assessed as fungal growth inhibition by CLSI based serial microbroth dilution method; type: functional
Cryptococcus neoformans = experiment: Antifungal activity against Cryptococcus neoformans CGMCC 2.3161 assessed as fungal growth inhibition by CLSI based serial microbroth dilution method; type: functional
Cell membrane [8] = experiment: Disruption of membrane integrity in Candida albicans ATCC SC5314 assessed as cell wall damage at 16 ug/ml incubated for 48 hrs by transmission electron microscopy; type: subcellular; conditions: dose 16.0 µg/ml
Pichia kudriavzevii = experiment: Antifungal activity against Candida krusei GIM 2.1 assessed as fungal growth inhibition by CLSI based serial microbroth dilution method; type: functional
Candida albicans [9] = experiment: Antibiofilm activity against Candida albicans […] assessed as inhibition of […] metabolism within the biofilm measured after 3 hrs by XTT reduction assay; type: functional
[10] = target: T1, Lanosterol 14-alpha demethylase; experiment: Inhibition of CYP51 in Candida albicans ATCC SC5314 assessed as unknown sterol level at 0.0075 ug/ml measured after 18 hrs by GC-MS analysis (reference value: 3.07 %); set-up: scale not given: the % may be the effect or the level left; conditions: at 0.0075 µg/mL
[11] = Stability of the compound in human plasma assessed as parent compound remaining after 120 hrs by LC-MS/MS analysis; type: ADME, cell-free; conditions: read-out: Stability
Cell membrane [12] = experiment: Disruption of membrane integrity in Candida albicans ATCC SC5314 assessed as endogenous substances leakage at 16 ug/ml incubated for 48 hrs by transmission electron microscopy; type: subcellular; conditions: dose 16.0 µg/ml
Candida albicans [13] = experiment: Antifungal activity against Candida albicans ATCC SC5314 assessed as fungal growth inhibition by CLSI based serial microbroth dilution method; type: functional
[14] = Cytotoxicity against human THLE-2 cells assessed as reduction in cell viability incubated for 96 hrs by MTT assay; type: toxicity, cell-based
Candida albicans [15] = experiment: Antifungal activity against FLC-resistant Candida albicans 904 assessed as fungal growth inhibition by CLSI based serial microbroth dilution method; type: functional
[16] = Stability of the compound in human plasma assessed as half life measured after […] by LC-MS/MS analysis; type: ADME, cell-free
Candida albicans [17] = experiment: Antifungal activity against Candida albicans CPCC400616 assessed as fungal growth inhibition by CLSI based serial microbroth dilution method; type: functional
Candida tropicalis = experiment: Antifungal activity against Candida tropicalis CGMCC 2.3739 assessed as fungal growth inhibition by CLSI based serial microbroth dilution method; type: functional
[18] = Stability of the compound in human plasma assessed as parent compound remaining after […] by LC-MS/MS analysis; type: ADME, cell-free; conditions: read-out: Stability
RAW264.7 = experiment: Cytotoxicity against mouse RAW264.7 cells assessed as reduction in cell viability incubated for 96 hrs by MTT assay; type: functional, cell-based; conditions: RAW264.7, 96 h
[19] = target: T1, Lanosterol 14-alpha demethylase; experiment: Inhibition of CYP51 in Candida albicans ATCC SC5314 assessed as ergosterol level at 0.0075 ug/ml measured after 18 hrs by GC-MS analysis (reference value: 96.93 %); set-up: scale not given: the % may be the effect or the level left; conditions: at 0.0075 µg/mL
A549 = experiment: Cytotoxicity against human A549 cells assessed as reduction in cell viability incubated for 96 hrs by MTT assay; type: functional, cell-based; conditions: A549, 96 h
Candida parapsilosis = experiment: Antifungal activity against Candida parapsilosis GIM 2.190 assessed as fungal growth inhibition by CLSI based serial microbroth dilution method; type: functional; conditions: Lodderomyces parapsilosis
[20] = target: T1, Lanosterol 14-alpha demethylase; experiment: Inhibition of CYP51 in Candida albicans ATCC SC5314 assessed as eburicol level at 0.0075 ug/ml measured after 18 hrs by GC-MS analysis relative to control; set-up: scale not given: the % may be the effect or the level left; conditions: at 0.0075 µg/mL
Cell membrane [21] = experiment: Disruption of membrane integrity in Candida albicans ATCC SC5314 assessed as rupture of fungal cells at 16 ug/ml incubated for 48 hrs by transmission electron microscopy; type: subcellular; conditions: dose 16.0 µg/ml
[22] = Cytotoxicity against human HepG2 cells assessed as reduction in cell viability incubated for 96 hrs by MTT assay; type: toxicity, cell-based
Nakaseomyces glabratus = experiment: Antifungal activity against Candida glabrata clinical isolate assessed as fungal growth inhibition by CLSI based serial microbroth dilution method; type: functional
Candida albicans [23] = experiment: Antifungal activity against FLC-resistant Candida albicans 311 assessed as fungal growth inhibition by CLSI based serial microbroth dilution method; type: functional
[24] = target: T1, Lanosterol 14-alpha demethylase; experiment: Inhibition of CYP51 in Candida albicans ATCC SC5314 assessed as 14alpha-methylergosta-8,24(28)-dien-3beta-6alpha-diol level at 0.0075 ug/ml measured after 18 hrs by GC-MS analysis relative to control; set-up: scale not given: the % may be the effect or the level left; conditions: at 0.0075 µg/mL
Candida albicans [25] = experiment: Antibiofilm activity against Candida albicans […] assessed as inhibition of […] metabolism within the biofilm measured after 6 hrs by XTT reduction assay; type: functional
Candida albicans [26] = experiment: Antibiofilm activity against Candida albicans […] assessed as inhibition of […] metabolism activity in the biofilm measured after 24 hrs by XTT reduction assay; type: functional
Candida albicans [27] = experiment: Antibiofilm activity against Candida albicans […] assessed as inhibition of […] metabolism within the biofilm measured after 18 hrs by XTT reduction assay; type: functional
Candida albicans [28] = experiment: Antifungal activity against FLC-resistant Candida albicans 100 assessed as fungal growth inhibition by CLSI based serial microbroth dilution method; type: functional
Candida albicans [29] = experiment: Antibiofilm activity against Candida albicans […] assessed as inhibition of […] metabolism activity in the biofilm measured after 48 hrs by XTT reduction assay; type: functional
Candida albicans [30] = experiment: Antifungal activity against FLC-resistant Candida albicans 632 assessed as fungal growth inhibition by CLSI based serial microbroth dilution method; type: functional
Candida albicans [31] = experiment: Antifungal activity against FLC-resistant Candida albicans 901 assessed as fungal growth inhibition by CLSI based serial microbroth dilution method; type: functional
Aspergillus fumigatus = experiment: Antifungal activity against Aspergillus fumigatus CGMCC 3.7795 assessed as fungal growth inhibition by CLSI based serial microbroth dilution method; type: functional

## Fc1cccc(F)c1CC1(Cn2cncn2)COC(c2ccc(-c3ccsc3)cc2)=N1 (stereo not given)
Candida albicans [1]
  MFC: 0.25 µg/mL (≈ 0.573 µM)
[2]
  Activity: 31.91%
Cell membrane [3]
  Activity: Active
Candida albicans [4]
  MIC: 0.25 µg/mL (≈ 0.573 µM)
Candida albicans [5]
  MIC: 1 µg/mL (≈ 2.29 µM)
MCF7
  IC50: > 50 µM
Candida albicans [6]
  Activity: Active
Candida albicans [7]
  MIC: 4 µg/mL (≈ 9.16 µM)
Cryptococcus neoformans
  MIC: 0.06 µg/mL (≈ 0.137 µM)
Cell membrane [8]
  Activity: Active
Pichia kudriavzevii
  MIC: 0.125 µg/mL (≈ 0.286 µM)
Candida albicans [9]
  MIC50: 0.125 µg/mL (≈ 0.286 µM)
[10]
  Activity: 1.92%
[11]
  remaining at 120 h: 98.2%
Cell membrane [12]
  Activity: Active
Candida albicans [13]
  MIC: 0.015 µg/mL (≈ 0.0344 µM)
[14]
  IC50 at 96 h: > 50 µM
Candida albicans [15]
  MIC: 1 µg/mL (≈ 2.29 µM)
[16]
  half-life: > 4.8 h
Candida albicans [17]
  MIC: 0.015 µg/mL (≈ 0.0344 µM)
Candida tropicalis
  MIC: 0.03 µg/mL (≈ 0.0687 µM)
[18]
  remaining: 96.8%
RAW264.7
  IC50: 32.5 µM
[19]
  Activity: 4.61%
A549
  IC50: > 50 µM
Candida parapsilosis
  MIC: 0.125 µg/mL (≈ 0.286 µM)
[20]
  Activity: 24.69%
Cell membrane [21]
  Activity: Active
[22]
  IC50 at 96 h: 39.3 µM
Nakaseomyces glabratus
  MIC: 0.06 µg/mL (≈ 0.137 µM)
Candida albicans [23]
  MIC: 2 µg/mL (≈ 4.58 µM)
[24]
  Activity: 28.2%
Candida albicans [25]
  MIC50: 0.125 µg/mL (≈ 0.286 µM)
Candida albicans [26]
  MIC50: 16 µg/mL (≈ 36.7 µM)
Candida albicans [27]
  MIC50: 2 µg/mL (≈ 4.58 µM)
Candida albicans [28]
  MIC: 1 µg/mL (≈ 2.29 µM)
Candida albicans [29]
  MIC50: > 64 µg/mL
Candida albicans [30]
  MIC: 4 µg/mL (≈ 9.16 µM)
Candida albicans [31]
  MIC: 0.25 µg/mL (≈ 0.573 µM)
Aspergillus fumigatus
  MIC: 16 µg/mL (≈ 36.7 µM)
